From the NIST ThermoML archive (doi:10.1016/j.jct.2008.01.018)

Experiment: mn = molality of the nth substance listed, in mol/kg
Details: 101 kPa, Liquid; for speed of sound: Sing-around technique in a fixed-path interferometer

O=P([O-])(O)O.[Na+] [sodium dihydrogen phosphate] + O
Details	mass density, 283.15 K [kg/m3]	mass density, 288.15 K [kg/m3]	mass density, 293.15 K [kg/m3]	speed of sound, 283.15 K [m/s]	speed of sound, 288.15 K [m/s]	speed of sound, 293.15 K [m/s]
m1 = 0.0343	1002.89	1002.25	1001.32	1451.8	1470	1486
m1 = 0.0484	1004.16	1003.5	1002.56	1453.5	1471.6	1487.6
m1 = 0.1399	1012.4	1011.65	1010.62	1463.6	1481.2	1496.9
m1 = 0.167	1014.82	1014.03	1012.98	1466.5	1484.1	1499.7
m1 = 0.1967	1017.47	1016.66	1015.58	1469.7	1487.2	1502.7
m1 = 0.2231	1019.84	1019	1017.9	1472.6	1490	1505.3
m1 = 0.2506	1022.23	1021.37	1020.25	1475.5	1492.8	1508
m1 = 0.3229	1028.59	1027.65	1026.47	1483.2	1500.2	1515.1
m1 = 0.3586	1031.67	1030.7	1029.5	1486.9	1503.7	1518.5
m1 = 0.4346	1038.07	1037.04	1035.78	1494.7	1511.1	1525.6
m1 = 0.5108	1044.45	1043.36	1042.04	1502.2	1518.4	1532.6
m1 = 0.5812	1050.36	1049.21	–	1509.2	1525.2	1539.1
m1 = 0.6658	1057.33	1056.12	–	1517.5	1533.1	1546.8
m1 = 0.7462	1063.82	1062.54	–	1525.3	1540.5	1553.9
m1 = 0.9163	1077.42	1076.03	–	1541.5	1556.1	1568.9
m1 = 1.093	1091.46	1089.96	–	1558.4	1572.3	1584.3
m1 = 1.262	1104.21	1102.62	–	1573.7	1587	1598.5
m1 = 1.451	1117.95	1116.26	–	1590.5	1602.9	1613.8
m1 = 1.758	1139.71	1137.89	–	1617	1628.3	1638.1
m1 = 2.041	1159.21	1157.28	–	1641.2	1651.4	1660.2
m1 = 2.374	1181.48	1179.42	–	1669.2	1678.2	1685.9
m1 = 2.747	1205.29	1203.12	–	1699.5	1707.2	1713.7
m1 = 3.115	1226.77	1224.51	–	1727.2	1733.6	1739
m1 = 3.512	1250.32	1247.97	–	1758.2	1763.3	1767.4
